Results from patent US20120202296A1, “SYSTEM, METHOD, AND APPARATUS FOR MEASURING AFFINITY CONSTANTS” (The Trustees of Columbia University in the City of New York, priority 2011, published 2012).

Tests used:
[1] = tested on: control DNA (6-bp EcoR1 recognition sequence altered); assay: Time-resolved SH signal control experiment with DNA whose recognition sequence is altered; type: binding; settings: control DNA without EcoR1 recognition sequence
[2] = tested on: ds biotinylated-DNA (90 bp) containing an EcoR1 recognition sequence; assay: Time-resolved second harmonic (SH) signal on adding EcoR1 to DNA-coated microparticles; type: binding; settings: PSC-DNA microparticles
Text: A particular example of how to use the above quantification method and system was experimentally validated as follows. An experimental apparatus was used to measure a time-resolved SH signal that was similar to that described in Yan E C Y, Liu Y, Eisenthal K B (1998) “New method for determination of surface potential of microscopic particles by second harmonic generation.” J Phys Chem B 102:6331-6336 which is hereby incorporated by reference in its entirety. A Princeton Instruments CCD camera was used to acquire light samples. The fundamental laser frequency was centered at 810 nm with approximately 400 mW of average power and a pulse width of approximately 75 femtoseconds (10^−15 sec.; fs). […] Polystyrene carboxylate (PSC) microparticle-DNA bioconjugate particles were prepared in an analogous way to previous synthetic reports.
FIG. 1A is a figurative illustration of the resulting particles 6. A biotin binding protein 18, NeutrAvidin (NA), is linked to the PSC surface (diameter ¼ 1.0 μm, Invitrogen). A PSC-NA solution with a concentration of 5.6×10^9 particles/mL, was suspended in water at pH ¼ 7.5. To this solution ds biotinylated-DNA 12 (90 bp, Integrated DNA Technologies) containing an EcoR1 recognition sequence 8, which is 15 bp from the end attached to the microparticle, was added to a DNA concentration of 0.69 nM and incubated at 55° C. for 1 h. […]

## EcoR1: restriction enzyme that binds its DNA recognition sequence, bends and cleaves the DNA
[1]
  jump in the SH signal when EcoR1 is added: did not show any jump in the SH signal
[2]; 2 mM NaCl
  jump of the SH signal when EcoR1 is added: 9.5%
[2]; NaCl concentration 8.50 mM, NaCl in place of Mg2+
  jump of the SH signal when EcoR1 is added: 30%
